Data published in patent US4937266A, “Inhibitory agent of hepatic fibrosis” (priority 1988, dated 1990).

Columns and labels:
prolyl hydroxylase = conditions: rabbit, in vivo
From the text: Male Japanese white rabbits weighing 2.5 kg were used. A cholesterol group consisting of 8 rabbits were fed on RC-4 diet (sold by Oriental Kobo Co., Ltd.) containing 0.5% cholesterol for 10 weeks. […] A control group consisting of 3 rabbits were fed on RC-4 diet for the same period.
The rabbits were sacrificed by exsangunation from abdominal aorta under anesthesia with pentobarbital and the liver and kidney were removed. A portion of the each organ was homogenized with 9 times the volume of a 0.01M Tris-hydrochloric acid buffer solution (pH 7.4) containing 10^-5 M EDTA and 10^-4 M DTT in Polytron homogenizer. The prolyl hydroxylase activity was expressed as radioactivity of ^3 H2 O released per milligram of protein when ^3 H-proline labeled unhydroxylated collagen was incubated as a substrate for 30 minutes. […] Incubation was carried out at 30° C. for 30 minutes. 100 μl of a 55% trichloroacetic acid aqueous solution was added thereto to stop the reaction. The ^3 H2 O of the reaction mixture was separated by vacuum distillation of the whole reaction mixture. An aliquot (800 μl) of the distillate was mixed with 10 ml of Aquasol and counted for the radioactivity in a liquid scintillation counter. The protein amount was measured by BIO.RAD Protein Assay Kit using bovine serum albumin (BSA) as a standard.

medicinal fatty liver = conditions: reported in JP-B-No. 60-19891; cited from earlier work
viral hepatitis = conditions: reported in JP-A-No. 58-35118; cited from earlier work

CC(C)(CO)[C@@H](O)C(=O)NCCC(=O)NCCSSCCNC(=O)CCNC(=O)[C@H](O)C(C)(C)CO [Pantethine, D-bis-(N-pantothenyl-β-aminoethyl)-disulfide]
Prolyl Hydroxylase Activity, Liver (prolyl hydroxylase): 729.3 ± 45.6 cpm/mg-protein
prolyl hydroxylase activity in the liver (in words) (prolyl hydroxylase): decreased nearly to the level of the normal group
effect on medicinal fatty liver (in words) (medicinal fatty liver): effective
effect on viral hepatitis (in words) (viral hepatitis): effective
